The NIST ThermoML archive (doi:10.1021/je400630f)

Test: xn = mol fraction of the nth substance listed
Details: 100 kPa, Liquid; for viscosity: Capillary tube (Ostwald / Ubbelohde) method

CCCCO [butan-1-ol] + CCO
Details	mass density, 283.15 K [kg/m3]	mass density, 293.15 K [kg/m3]	mass density, 298.15 K [kg/m3]	mass density, 303.15 K [kg/m3]	mass density, 313.15 K [kg/m3]	viscosity, 283.15 K [mPa·s]	viscosity, 293.15 K [mPa·s]	viscosity, 298.15 K [mPa·s]	viscosity, 303.15 K [mPa·s]	viscosity, 313.15 K [mPa·s]
x2 = 0	817.3	809.6	805.8	802.1	794.3	3.822	2.859	2.558	2.236	1.736
x2 = 0.1002	815.9	808.3	804.5	800.6	792.8	3.528	2.645	2.371	2.091	1.631
x2 = 0.2008	814.5	806.8	803	799.1	791.2	3.198	2.44	2.192	1.938	1.526
x2 = 0.3018	813.3	805.6	801.7	797.8	789.8	2.887	2.235	2.017	1.788	1.42
x2 = 0.4006	811.7	803.8	799.9	795.9	787.9	2.63	2.048	1.853	1.636	1.321
x2 = 0.5002	809.6	801.6	797.7	793.7	785.6	2.404	1.879	1.703	1.506	1.225
x2 = 0.6008	807.7	799.8	795.8	791.8	783.6	2.196	1.715	1.554	1.379	1.135
x2 = 0.7002	805.6	797.5	793.4	789.3	781	1.993	1.567	1.42	1.274	1.058
x2 = 0.7991	803.3	795.1	790.9	786.8	778.3	1.811	1.421	1.299	1.175	0.985
x2 = 0.8997	800.8	792.4	788.2	784.1	776	1.644	1.299	1.188	1.074	0.91

CCCCCCCCCCO [decan-1-ol] + CCO
Details	mass density, 283.15 K [kg/m3]	mass density, 293.15 K [kg/m3]	mass density, 298.15 K [kg/m3]	mass density, 303.15 K [kg/m3]	mass density, 313.15 K [kg/m3]	viscosity, 283.15 K [mPa·s]	viscosity, 293.15 K [mPa·s]	viscosity, 298.15 K [mPa·s]	viscosity, 303.15 K [mPa·s]	viscosity, 313.15 K [mPa·s]
x2 = 0	836.6	829.9	826.5	823	816.2	22.06	14.5	11.47	9.61	6.9
x2 = 0.09979	835.2	828.4	825	821.5	814.6	18.94	12.7	10.22	8.604	6.221
x2 = 0.2	833.7	826.9	823.5	820	813	16.12	10.94	8.957	7.538	5.513
x2 = 0.3002	831.9	825.1	821.6	818.1	811.1	13.35	9.255	7.687	6.462	4.812
x2 = 0.3999	829.5	822.6	819.1	815.5	808.8	10.96	7.668	6.509	5.468	4.146
x2 = 0.5	827.7	820.6	817	813.5	806.4	8.705	6.278	5.387	4.547	3.51
x2 = 0.6003	824	816.8	813.2	809.5	802.1	6.674	5.013	4.346	3.726	2.92
x2 = 0.6999	820.1	812.8	808.8	805.4	797.9	4.92	3.832	3.374	2.947	2.352
x2 = 0.7997	814.6	807	803.1	799.3	791.5	3.54	2.73	2.459	2.195	1.813
x2 = 0.9	807.9	800	795.9	791.9	783.8	2.319	1.87	1.692	1.534	1.311

CCCCCCCO [heptan-1-ol] + CCO
Details	mass density, 283.15 K [kg/m3]	mass density, 293.15 K [kg/m3]	mass density, 298.15 K [kg/m3]	mass density, 303.15 K [kg/m3]	mass density, 313.15 K [kg/m3]	viscosity, 283.15 K [mPa·s]	viscosity, 293.15 K [mPa·s]	viscosity, 298.15 K [mPa·s]	viscosity, 303.15 K [mPa·s]	viscosity, 313.15 K [mPa·s]
x2 = 0	829.6	822.6	819.1	815.6	808.4	10.15	7.026	5.947	5.041	3.802
x2 = 0.1001	828.1	821.1	817.6	814	806.8	8.86	6.256	5.311	4.514	3.446
x2 = 0.2008	826.5	819.5	815.9	812.3	805.1	7.718	5.46	4.679	3.999	3.092
x2 = 0.3009	824.8	817.7	814.1	810.4	803.1	6.653	4.681	4.097	3.523	2.751
x2 = 0.4002	822.8	815.5	811.9	808.2	800.8	5.636	4.015	3.565	3.076	2.438
x2 = 0.5001	819.9	812.5	808.8	805.1	797.5	4.683	3.42	3.037	2.653	2.125
x2 = 0.6002	817.6	810.2	806.4	802.6	794.9	3.765	2.869	2.541	2.237	1.818
x2 = 0.6998	813.8	806.2	802.3	798.4	790.6	3.02	2.378	2.09	1.859	1.536
x2 = 0.8	809.9	802.1	798.1	794.1	786.1	2.4	1.943	1.702	1.523	1.28
x2 = 0.8998	804.3	796.2	792.1	788	779.7	1.851	1.535	1.375	1.222	1.04
